Experimental findings from PMC7667029, “A Targeted Computational Screen of the SWEETLEAD Database Reveals FDA-Approved Compounds with Anti-Dengue Viral Activity” (mBio, 2020) are described below.

pIC50: −log10 of the molar value. “Also recorded” adds a separate entry of the source.

For one assay, the system named is DENV2. Nature of the assay: Antiviral activity in DENV2-infected Huh7 cells, infectious virus in supernatant by plaque assay. It counts as cell-based, dengue virus. The settings on record: Dengue virus, Huh-7, DENV2-infected Huh7 cells.
In assay [1] the test system is DENV-2 luciferase-expressing replicon. Briefly: Replicon luciferase assay in Huh7 cells. It counts as cell-based, dengue virus. The settings on record: 3 μM vandetanib, Huh7, up to 52 h posttransfection. Here is the method:
FIG 5 Vandetanib and spautin-1 inhibit dengue maturation and egress in a VPS34-independent manner. […] Cells were pretreated for 1 h, infected for 1 h at an MOI of 0.5 PFU/cell, and posttreated for an additional 23 h. N = 4, one-way ANOVA with Dunnett’s multiple-comparison test. ns, not significant (P > 0.05); **, P < 0.01; ****, P < 0.0001. (C) Huh7 cells transfected with a luciferase-expressing RNA replicon were treated with 3 μM vandetanib (orange) or 1% DMSO vehicle control (black) for 1 h prior to transfection and up to 52 h posttransfection. Luciferase intensity was quantified as a measure of viral protein abundance. Luciferase intensity was shown as relative light units (RLU). The use of an RNA replicon that is directly transfected into cells reflects only translation and RNA replication steps of viral infection, not viral packaging or cell exit. N = 4, two-way ANOVA with Sikak’s multiple-comparison test. […] (D) VPS34 was not required for spautin-1 or vandetanib anti-dengue activity. […]
A dengue replicon derived from the dengue virus strain 16681 expressing Renilla luciferase and dengue nonstructural proteins has been previously established ([7], [64]). […] Transfected cells were harvested and analyzed using the Renilla luciferase assay system (Promega BioSystems). Luciferase intensity was measured with a GloMax luminometer (10-s signal integration; Promega BioSystems).

The compound `COc1cc2c(Nc3ccc(Br)cc3F)ncnc2cc1OCC1CCN(C)CC1` [Vandetanib, vandetanib] had an IC90 in the assay with DENV2 (from dose-response curve fit, 24 hpi) of 3600 nM. Further, the negative logarithm of the IC50 (pIC50) in the assay on DENV2 (single infectious cycle, plaque assay at 24 hpi, read-out: IC50 of viral inhibition (infectious extracellular virus)) is 5.80. The “Luciferase production of replicon” value in assay [1] is given as “no effect on luciferase production; also recorded: no significant differences”.

A word on the IC90: it is the point of the concentration-response curve where the effect stands at 90%. The pIC50 is the negative decadic logarithm of the IC50, by convention in mol/L.
